Experimental data as given in EP4631937A1, “CRYSTALLINE FORM OR AMORPHOUS FORM OF OXOISOINDOLE-5-FORMAMIDE COMPOUND OR SALT AND SOLVATE THEREOF” (Hangzhou Glubio Pharmaceutical Co., Ltd., priority 2022, dated 2024).

Assays:
Assay type in all cases: physicochemical
[1] = Stability test of crystalline forms (open container at 25°C/92% RH and 40°C/75% RH, sealed container at 60°C, 13 days; XRPD, HPLC, colour); conditions: Solid, 1 week; for Chemical purity / Chiral purity: HPLC/SFC; for Chemical purity / Chiral purity / Solid (XRPD): listed as Crystalline form E
[2] = as above; conditions: initial, before storage; listed as Crystalline form E
Description: Placed in a open container at 25°C/92% RH and 40°C/75% RH for 13 days, respectively, or in a sealed container at 60°C for 13 days. […]
(§1) Placed in a open container at 25 °C/92% RH and 40 °C/75% RH for 13 days, respectively, or in a sealed container at 60 °C for 13 days. […]
as §1

[3] = Hygroscopicity test by DVS, with XRPD after DVS; conditions: 25 °C, listed as Crystalline form E
Description: • DVS Intrinsic Dynamic Vapor Sorption Instrument • Gas flow rate 200 sccm, furnace temperature 25 °C.
The hygroscopicity and dehydration behavior of crystalline form B was investigated by DVS. Humidity program: 25 °C, 40-0-95-0-40% RH, dm/dt 0.002, shortest equilibrium time was 60 min, and longest equilibrium time was 360 min. XRPD was also performed on the samples after DVS test to determine whether the crystal transformation occurred.
The hygroscopicity and dehydration behavior of crystalline form E was investigated by DVS. Humidity program: 25 °C, 40-0-95-0-40% RH, dm/dt 0.002, shortest equilibrium time was 60 min, and longest equilibrium time was 360 min. XRPD was also performed on the samples after DVS test to determine whether the crystal transformation occurred.
The hygroscopicity and dehydration behavior of crystalline form G was investigated by DVS. Humidity program: 25 °C, 40-0-95-0-40% RH, dm/dt 0.002, shortest equilibrium time was 60 min, and longest equilibrium time was 360 min. XRPD was also performed on the samples after DVS test to determine whether the crystal transformation occurred.

## O=C1CC[C@H](N2Cc3cc(C(=O)N[C@H](c4ccc(Cl)cn4)C4CCC4)ccc3C2=O)C(=O)N1 [crystalline form E, N-((S)-(5-chloropyridin-2-yl)(cyclobutyl)methyl)-2-((S)-2,6-dioxopiperidin-3-yl)-1-oxoisoindoline-5-carboxamide]
[1]; 25 °C/92% RH, open container
  Color: No color change
  Chemical purity: 98.3% See Figure 16c
  Chiral purity: 98.6% See Figure 16d
  Solid (XRPD): The crystal form did not change, see Figure 16e
[1]; 40 °C/75% RH, open container
  Color: No color change
  Chemical purity: 98.6% See Figure 16f
  Chiral purity: 98.6% See Figure 16g
  Solid (XRPD): The crystal form did not change, see Figure 16e
[1]; 60 °C, sealed container
  Color: No color change
  Chemical purity: 98.8% See Figure 16h
  Chiral purity: 98.7% See Figure 16i
  Solid (XRPD): The crystal form did not change, see Figure 16e
[2]
  Initial purity (HPLC/SFC) Chemical purity: 99.3% See Figure 16a
  Initial purity (HPLC/SFC) Chiral purity: 98.7% See Figure 16b
[3]; relative humidity 0%
  1st adsorption weight change percentage: 0.1%
  1st desorption weight change percentage: 0.1%
[3]; relative humidity 10%
  1st adsorption weight change percentage: 0.3%
  1st desorption weight change percentage: 0.3%
  2nd adsorption weight change percentage: 0.3%
  2nd desorption weight change percentage: 0.3%
[3]; relative humidity 20%
  1st adsorption weight change percentage: 1.3%
  1st desorption weight change percentage: 1.3%
  2nd adsorption weight change percentage: 1.3%
  2nd desorption weight change percentage: 1.3%
[3]; relative humidity 30%
  1st adsorption weight change percentage: 1.6%
  1st desorption weight change percentage: 1.6%
  2nd adsorption weight change percentage: 1.6%
  2nd desorption weight change percentage: 1.6%
[3]; relative humidity 40%
  1st adsorption weight change percentage: 2.0%
  1st desorption weight change percentage: 2.0%
  2nd adsorption weight change percentage: 2.0%
  2nd desorption weight change percentage: 2.0%
[3]; relative humidity 50%
  1st adsorption weight change percentage: 2.7%
  2nd desorption weight change percentage: 2.8%
[3]; relative humidity 60%
  1st adsorption weight change percentage: 3.1%
  2nd desorption weight change percentage: 3.3%
[3]; relative humidity 70%
  1st adsorption weight change percentage: 3.5%
  2nd desorption weight change percentage: 3.5%
[3]; relative humidity 80%
  1st adsorption weight change percentage: 3.6%
  2nd desorption weight change percentage: 3.6%
[3]; relative humidity 90%
  1st adsorption weight change percentage: 3.8%
  2nd desorption weight change percentage: 3.8%
[3]; relative humidity 95%
  1st adsorption weight change percentage: 4.0%
  2nd desorption weight change percentage: 4.0%
[3]; after 40-0-95-0-40% RH
  XRPD after DVS test: The crystal form did not change, see Figure 19b
[3]; under 40%RH-95%RH
  moisture adsorbed (DVS): 2.0% of moisture was adsorbed under 40%RH-95%RH, see Figure 19a
